Results: ChEMBL document CHEMBL5131389, “PSMA-targeted small-molecule docetaxel conjugate: Synthesis and preclinical evaluation” (Eur J Med Chem, 2022)
≈ marks a conversion by molar mass, not a printed value. Where “and” joins values, the source holds several entries; their conditions need not be identical. Equal values may be shown once. Calls of active or inactive are those of the source. The calls are words filed in the database; no cut-off is given here.

Experiments:
DU-145 = assay: Antitumor activity against human DU-145 cells xenografted in BALB/c nude mouse assessed as tumor growth inhibition at 30 mg/kg, ip measured upto 30 days; assay type: functional; settings: DU-145, 720 h, time <= 30 day, read-out: TGI
[1] = Chronic toxicity in rat assessed as change in volume of excreted urine at 15 mg/kg, iv administered as pluronic F127 formulation at 4 intervals for 21 days and observed 3 weeks post last injection; assay type: organism-based; settings: in vivo, 2544 h, time 106 day
[2] = Chronic toxicity in Soviet Chinchilla rabbit assessed as decrease in body weight at 8.14 mg/kg, iv administered as pluronic F127 formulation at 4 intervals for 21 days and observed 3 weeks post last injection; assay type: organism-based, Oryctolagus cuniculus; settings: in vivo, 2544 h, time 106 day
[3] = Chronic toxicity in rat assessed as change in volume of excreted urine at 18.75 to 22.5 mg/kg, iv administered as pluronic F127 formulation at 4 intervals for 21 days and observed 3 weeks post last injection; assay type: organism-based; settings: in vivo, 2544 h, dose 18.75-22.5 mg/kg, time 106 day
[4] = Volume of distribution in Albino Wistar rat at 15 mg/kg, iv administered as pluronic F127 formulation measured upto 72 hrs by high-performance liquid chromatography tandem mass spectrometric analysis; assay type: ADME, organism-based; settings: in vivo
[5] = Chronic toxicity in rat assessed as increase in relative mass of liver at 15 to 22.5 mg/kg, iv administered as pluronic F127 formulation at 4 intervals for 21 days and observed 3 weeks post last injection relative to control; assay type: organism-based; settings: in vivo, 2544 h, dose 15-22.5 mg/kg, time 106 day
[6] = Acute toxicity in Wistar rat assessed as violation of motor activity in hind limb administered intravenously as pluronic F127 formulation and measured for 14 days; settings: in vivo, iv, 336 h, dose 15-279 mg/kg, time 14 day
[7] = Acute toxicity in Wistar rat assessed as decrease in body weight administered intravenously as pluronic F127 formulation and measured for 14 days; settings: in vivo, iv, 336 h, dose 15-279 mg/kg, time 14 day
[8] = Toxicity in Balb/c nude mouse xenografted with human 22Rv1 cells assessed as animal death at 30 mg/kg, ip measured upto 30 days; assay type: organism-based, CWR22R; settings: in vivo, 720 h, time < 30 day
[9] = MRT (0 to t) in Albino Wistar rat at 15 mg/kg, iv administered as pluronic F127 formulation measured upto 72 hrs by high-performance liquid chromatography tandem mass spectrometric analysis; assay type: ADME, organism-based; settings: in vivo
[10] = Chronic toxicity in rat assessed as reduction in standing up at 22.5 mg/kg, iv administered as pluronic F127 formulation at 4 intervals for 21 days and observed 3 weeks post last injection; assay type: organism-based; settings: in vivo, 2544 h, time 106 day
PC-3 = assay: Effect on cell stiffness in human PC-3 cells assessed as increase in young's modulus at 2.8 nM measured after 1 hr by topography based scanning ion-conductance microscopic analysis; assay type: functional
[11] = Chronic toxicity in rat assessed as change in relative density of urine at 22.5 mg/kg, iv administered as pluronic F127 formulation at 4 intervals for 21 days and observed 3 weeks post last injection; assay type: organism-based; settings: in vivo, 2544 h, time 106 day
[12] = Stability of the compound in pH 5.5 buffer measured upto 96 hrs by LC-MS based mass spectrometric analysis; assay type: physicochemical; settings: pH 5.5, 96 h
[13] = Chronic toxicity in rat assessed as decrease in relative mass of testes administered intravenously as pluronic F127 formulation at 4 intervals for 21 days and observed 3 weeks post last injection relative to control; settings: in vivo, iv, 2544 h, time 106 day
[14] = Chronic toxicity in Soviet Chinchilla rabbit assessed as increase in relative pancreas mass at 8.14 to 12.21 mg/kg, iv administered as pluronic F127 formulation at 4 intervals for 21 days and observed 3 weeks post last injection; assay type: organism-based, Oryctolagus cuniculus; settings: in vivo, 2544 h, dose 8.14-12.21 mg/kg, time 106 day
[15] = Acute toxicity in ICR mouse assessed as violation of motor activity in hind limb administered intravenously as pluronic F127 formulation and measured for 14 days; settings: in vivo, iv, 336 h, dose 183-960 mg/kg, time 14 day
[16] = Aqueous solubility of compound; assay type: physicochemical
[17] = Chronic toxicity in Soviet Chinchilla rabbit assessed as animal death administered intravenously as pluronic F127 formulation at 4 intervals for 21 days and observed 3 weeks post last injection; set-up: species or system Oryctolagus cuniculus; settings: in vivo, iv, 2544 h, time 106 day
CWR22R [18] = assay: Antitumor activity against human 22Rv1 cells xenografted in Balb/c nude mouse assessed as tumor growth inhibition at 20 mg/kg, ip administered once in two days for three times and measured 4 days after the end of treatment relative to control; assay type: functional; settings: 22Rv1, 240 h, time 10 day, read-out: TGI
[19] = Chronic toxicity in Soviet Chinchilla rabbit assessed as increase in relative liver mass administered intravenously as pluronic F127 formulation at 4 intervals for 21 days and observed 3 weeks post last injection relative to control; assay type: tissue-based, Oryctolagus cuniculus; settings: in vivo, iv, 2544 h, time 106 day
CWR22R [20] = assay: Antitumor activity against human 22Rv1 cells xenografted in Balb/c nude mouse assessed as tumor growth inhibition at 30 mg/kg, ip administered daily for 5 days and measured at day 34 relative to control; assay type: functional; set-up: scale not given: the % may be the effect or the level left; settings: time 34 day
[21] = Chronic toxicity in rat assessed as change in relative heart mass at 15 to 18.75 mg/kg, iv administered as pluronic F127 formulation for 4 intervals of 21 days and observed 3 weeks post last injection relative to control; assay type: organism-based; settings: in vivo, 2544 h, dose 15-18.75 mg/kg, time 106 day
[22] = Subchronic toxicity in Wistar rat assessed as diarrhoea at 58 mg/kg, iv administered as pluronic F127 formulation daily for 28 days and observed on days 4 to 5; assay type: organism-based; settings: in vivo, 672 h, time 28 day
[23] = C0 in Soviet Chinchilla rabbit at 8.1 mg/kg, iv administered as pluronic F127 formulation measured upto 72 hrs by high-performance liquid chromatography tandem mass spectrometric analysis; assay type: ADME, organism-based, Oryctolagus cuniculus; settings: in vivo
[24] = Chronic toxicity in rat assessed as increase in relative lung mass administered intravenously as pluronic F127 formulation for 4 intervals of 21 days and observed 3 weeks post last injection relative to control; settings: in vivo, iv, 2544 h, time 106 day
[25] = Acute toxicity in ICR mouse assessed as lethal dose administered intravenously as pluronic F127 formulation and measured for 14 days; settings: in vivo, route iv, time 14 day
[26] = Acute toxicity in ICR mouse assessed as liver damage at 183 to 960 mg/kg, iv administered as pluronic F127 formulation and measured for 14 days; assay type: organism-based; settings: in vivo, 336 h, dose 183-960 mg/kg, time 14 day
CWR22R [27] = assay: Antitumor activity against human 22Rv1 cells xenografted in Balb/c nude mouse assessed as tumor growth inhibition at 10 mg/kg, ip administered once in two days for three times and measured 1 day after the end of treatment relative to control; assay type: functional; settings: 22Rv1, 168 h, time 7 day, read-out: TGI
[28] = Chronic toxicity in rat assessed as increase in relative kidney weight at 18.75 mg/kg, iv administered as pluronic F127 formulation at 4 intervals for 21 days and observed 3 weeks post last injection; assay type: organism-based; settings: in vivo, 2544 h, time 106 day
[29] = C0 in Albino Wistar rat at 15 mg/kg, iv administered as pluronic F127 formulation measured upto 72 hrs by high-performance liquid chromatography tandem mass spectrometric analysis; assay type: ADME, organism-based; settings: in vivo

## CC(=O)O[C@@]12CO[C@@H]1C[C@H](O)[C@@]1(C)C(=O)[C@H](O)C3=C(C)[C@@H](OC(=O)[C@H](OC(=O)CCCc4cn(CCCNC(=O)[C@H](Cc5ccc(O)cc5)NC(=O)[C@H](Cc5ccccc5)NC(=O)CCC(=O)NCCCCCC(=O)N(CCCC[C@H](NC(=O)N[C@@H](CCC(=O)O)C(=O)O)C(=O)O)Cc5cccc(Cl)c5)nn4)[C@@H](NC(=O)OC(C)(C)C)c4ccccc4)C[C@@](O)([C@@H](OC(=O)c4ccccc4)[C@H]21)C3(C)C
DU-145
  inhibition in vivo at 30 mg/kg: 81.7%
[1]
  Activity: Non-Toxic
[2]
  Activity: Toxic
[3]
  Activity: Toxic
[4]
  Vd: 0.631 L/kg
[5]
  Activity: Toxic
[6]
  Activity: Toxic
[7]
  Activity: Toxic
[8]
  Activity: Toxic
[9]
  MRT last at 72 h: 24 min
[10]
  Activity: Toxic
PC-3
  Activity: Active
[11]
  Activity: Toxic
[12]
  Stability: Unstable
[13]
  Activity: Toxic
[14]
  Activity: Toxic
[15]
  Activity: Toxic
[16]
  solubility: 130 µg/mL (≈ 66.6 µM)
[17]
  Activity: Non-Toxic
CWR22R [18]
  inhibition in vivo at 20 mg/kg: 85%
[19]
  Activity: Toxic
CWR22R [20]
  Activity: 80%
[21]
  Activity: Toxic
[22]
  Activity: Toxic
[23]
  C0 at 72 h: 79 µg/mL
[24]
  Activity: Toxic
[25]
  LD50 at 336 h: 409 mg/kg and 210 µmol/kg
[26]
  Activity: Toxic
CWR22R [27]
  inhibition in vivo at 10 mg/kg: 84%
[28]
  Activity: Toxic
[29]
  C0 at 72 h: 153 µg/mL
